Laboratory results taken from ChEMBL document CHEMBL1147448, “New substituted triaza-benzo[cd]azulen-9-ones as promising phosphodiesterase-4 inhibitors” (Bioorg Med Chem Lett, 2004).

Experiments:
Phosphodiesterase 3 = Phosphodiesterase 3 (Homo sapiens, UniProt Q14432+Q13370); test: Inhibition of phosphodiesterase 3; type: protein assay, Canis lupus familiaris
Phosphodiesterase 1 = Phosphodiesterase 1 (Homo sapiens, UniProt P54750+Q01064+Q14123); test: Inhibition of Phosphodiesterase 1; type: protein assay, Cavia porcellus
Phosphodiesterase 4 = Phosphodiesterase 4 (Homo sapiens, UniProt P27815+Q08499+Q07343+Q08493); test: Inhibition of phosphodiesterase 4; type: protein assay

SMILES	IC50 (Phosphodiesterase 3) [µM]	IC50 (Phosphodiesterase 1) [µM]	IC50 (Phosphodiesterase 4) [µM]
COc1cc2c3c(c1)C(c1ccccc1)=NCC(=O)N3CC2	77	52	40
Nc1cc2c3c(c1)C(c1ccccc1)=N[C@@H](NC(=O)c1ccncc1)C(=O)N3CC2			0.27
COc1cc2c3c(n1)C(c1ccccc1)=NCC(=O)N3CC2	> 100	> 100	23
COc1cc2c3c(n1)C(c1ccccc1)=N[C@@H](NC(=O)c1cccnc1)C(=O)N3CC2	12	14	6.1
COc1cc2c3c(c1)C(c1ccccc1)=N[C@@H](NC(=O)c1ccncc1)C(=O)N3CC2		16	
COc1cc2c3c(n1)C(c1ccccc1)=NC(NC(=O)c1cccnc1)C(=O)N3CC2 (single isomer, unassigned)	> 100	28	73
COc1cc2c3c(n1)C(c1ccccc1)=NC(NC(=O)c1cccnc1)C(=O)N3CC2 (stereo in doubt)	31	5.8	4.3
